Measured values from ChEMBL document CHEMBL1143586, “Dimeric zanamivir conjugates with various linking groups are potent, long-lasting inhibitors of influenza neuraminidase including H5N1 avian influenza” (J Med Chem, 2005).
In brackets after ≈: the same amount, converted by molar mass. Several values for one entry are separate records, joined by “and”; a condition that tells them apart may be missing. Equal values may be shown once.

Assays:
[1] = in vivo; conditions: rat
[2] = system: Mus musculus; experiment: Single intranasal effective dose required to inhibit viral replication in the 7-Day mouse efficacy model (Dosed with influenza A/Singapore /1/57); format: functional; conditions: inhaled or nasal, 168 h
[3] = system: Influenza B virus
[4] = in vivo; conditions: rat, plasma
[5] = system: Influenza A virus
[6] = system: Influenza A virus; remark: listed apart in the source
[7] = system: Influenza A virus; remark: listed apart in the source
[8] = in vivo; conditions: rat, po
[9] = system: Influenza B virus; remark: listed apart in the source
[10] = Plasma half life in rat after 10 mg/kg oral dosage; format: ADME, organism-based; design: dose 10 mg/kg, route oral
[11] = Plasma half life in rat after 2 mg/kg intravenous dosage; format: ADME, organism-based; design: dose 2 mg/kg, route intravenous
[12] = system: Influenza A virus; remark: listed apart in the source
[13] = system: Influenza A virus; remark: listed apart in the source
[14] = system: Influenza A virus; remark: listed apart in the source
[15] = in vivo; conditions: rat, inhaled or intranasal
[16] = target: Neuraminidase (Influenza A virus (A/Puerto Rico/8/1934(H1N1)), UniProt P03468)
Sequence of Neuraminidase (Influenza A virus (A/Puerto Rico/8/1934(H1N1)), UniProt P03468) (P03468 whole entry): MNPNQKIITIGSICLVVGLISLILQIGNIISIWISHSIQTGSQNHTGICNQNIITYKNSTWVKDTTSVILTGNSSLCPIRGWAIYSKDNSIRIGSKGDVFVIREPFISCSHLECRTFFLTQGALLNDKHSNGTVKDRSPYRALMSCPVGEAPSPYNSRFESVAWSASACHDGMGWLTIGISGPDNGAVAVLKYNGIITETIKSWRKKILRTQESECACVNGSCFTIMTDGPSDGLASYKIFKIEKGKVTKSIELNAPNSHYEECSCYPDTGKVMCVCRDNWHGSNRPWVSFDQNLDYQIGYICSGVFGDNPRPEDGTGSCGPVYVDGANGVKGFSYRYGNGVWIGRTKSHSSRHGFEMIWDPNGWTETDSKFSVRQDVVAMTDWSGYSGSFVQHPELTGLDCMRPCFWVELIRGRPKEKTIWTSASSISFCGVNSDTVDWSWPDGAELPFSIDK

[17] = target: Neuraminidase (Influenza A virus (A/Puerto Rico/8/1934(H1N1)), UniProt P03468); remark: listed apart in the source
[18] = target: Neuraminidase (Influenza A virus (A/Puerto Rico/8/1934(H1N1)), UniProt P03468); remark: listed apart in the source
[19] = Plasma half life in rat after 0.4 mg/kg intratracheal dosage; format: ADME, organism-based; design: dose 0.4 mg/kg, route endotracheal; conditions: inhaled or intranasal
[20] = system: Mus musculus; experiment: Single intranasal effective dose required to inhibit viral replication in the 7-Day mouse efficacy model (Dosed with influenza A/Victoria/3/75); format: functional; conditions: inhaled or nasal, 168 h
[21] = in vivo; conditions: rat, po; remark: listed apart in the source
[22] = system: Influenza B virus; remark: listed apart in the source

| Structure (SMILES) | Vd [1] [L/kg] | EC50 [3] | clearance [4] [mL/min/kg] | EC50 [5] [ng/mL] | EC50 [6] [ng/mL] | EC50 [7] | bioavailability [8] [%] | EC50 [9] [ng/mL] | half-life [10] [h] | half-life [11] [h] | EC50 [13] [ng/mL] | EC50 [14] [ng/mL] | bioavailability [15] [%] | half-life [19] [h] | further results |
| --- | --- | --- | --- | --- | --- | --- | --- | --- | --- | --- | --- | --- | --- | --- | --- |
| [H]/N=C(\N)N[C@H]1C=C(C(=O)O)O[C@@H]([C@H](O)[C@H](O)CO)C1NC(C)=O (some centres not stated) | 0.03 | 11.5 ng/mL (≈ 34.6 nM) | 1.42 | 35 (≈ 105 nM) | 0.27 (≈ 0.812 nM) | 56 ng/mL and > 100 ng/mL | 2.7 | 21 (≈ 63.2 nM) | 0.25 | 0.4 | 2.4 (≈ 7.22 nM) | 2.7 (≈ 8.12 nM) | – | – | ED90 [2]: 2.92 mg/kg; EC50 [12]: 5.5 ng/mL (≈ 16.6 nM) |
| CC(=O)NC1[C@@H](N=C(N)N)C=C(C(=O)O)O[C@H]1[C@H](OC(=O)NCCCCCCCCCCCCNC(=O)O[C@H](C(O)CO)[C@@H]1OC(C(=O)O)=C[C@H](NC(=N)N)C1NC(C)=O)C(O)CO (some centres not stated) | 0.2 | 0.05 ng/mL and 0.1 ng/mL | 0.7 | – | – | – | < 1 | 0.37 (≈ 0.403 nM) | 4.9 | 2.2 | 0.032 (≈ 0.0349 nM) | 0.032 (≈ 0.0349 nM) | 67 | 5 | IC50 [16]: 0.0217 µM; IC50 [17]: 0.00786 µM; IC50 [18]: 0.061 µM; ED90 [20]: 0.03 mg/kg |
| COC(=O)C1=C[C@H](N=C(N)N)C(NC(C)=O)[C@H]([C@H](OC(=O)NCCCNC(=O)c2ccc(C(=O)NCCCNC(=O)O[C@H](C(O)CO)[C@@H]3OC(C(=O)O)=C[C@H](N=C(N)N)C3NC(C)=O)cc2)C(O)CO)O1 (some centres not stated) | 0.2 | – | 0.7 | 0.009 (≈ 0.00892 nM) | 0.06 (≈ 0.0595 nM) | 0.02 ng/mL (≈ 0.0198 nM) | – | 0.32 (≈ 0.317 nM) | – | 0.4 | 0.05 (≈ 0.0496 nM) | 0.03 (≈ 0.0297 nM) | 67 | 2 | bioavailability [21]: < 1%; EC50 [22]: 0.022 ng/mL (≈ 0.0218 nM) |
